ChEMBL document CHEMBL1151018, “Studies On uro'gen III synthase with modified bilanes” (Bioorg Med Chem Lett, 1994)
The source made the active and inactive calls. The rule behind the calls is not given here.

target: T1, Uroporphyrinogen-III synthase (Homo sapiens) (UniProt P10746); assay: Compound was tested for its activity as substrate of Uroporphyrinogen III synthase; Yes
T1 sequence (whole entry): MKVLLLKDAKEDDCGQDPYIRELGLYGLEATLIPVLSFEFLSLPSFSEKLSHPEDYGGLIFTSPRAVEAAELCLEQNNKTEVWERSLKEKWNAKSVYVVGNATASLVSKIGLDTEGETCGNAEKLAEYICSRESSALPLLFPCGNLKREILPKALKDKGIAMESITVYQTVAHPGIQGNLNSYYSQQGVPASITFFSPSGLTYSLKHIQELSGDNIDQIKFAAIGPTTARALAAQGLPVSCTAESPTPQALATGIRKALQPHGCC

Compound	Activity
O=C(O)CCc1c[nH]c(Cc2[nH]c(Cc3[nH]c(Cc4[nH]c(CO)c(CC(=O)O)c4CCC(=O)O)c(CC(=O)O)c3CCC(=O)O)c(CC(=O)O)c2CCC(=O)O)c1CC(=O)O	Active
O=C(O)CCc1c(CC(=O)O)c[nH]c1Cc1[nH]c(Cc2[nH]c(Cc3[nH]c(CO)c(CC(=O)O)c3CCC(=O)O)c(CC(=O)O)c2CCC(=O)O)c(CC(=O)O)c1CCC(=O)O	Active
O=C(O)CCCc1c[nH]c(Cc2[nH]c(Cc3[nH]c(Cc4[nH]c(CO)c(CC(=O)O)c4CCC(=O)O)c(CC(=O)O)c3CCC(=O)O)c(CC(=O)O)c2CCC(=O)O)c1CC(=O)O	Active
CCc1c[nH]c(Cc2[nH]c(Cc3[nH]c(Cc4[nH]c(CO)c(CC(=O)O)c4CCC(=O)O)c(CC(=O)O)c3CCC(=O)O)c(CC(=O)O)c2CCC(=O)O)c1CC(=O)O	Active
O=C(O)CCc1c[nH]c(Cc2[nH]c(Cc3[nH]c(Cc4[nH]c(CO)c(CC(=O)O)c4CCC(=O)O)c(CC(=O)O)c3CCC(=O)O)c(CCC(=O)O)c2CC(=O)O)c1CC(=O)O	Active

target: T1, Uroporphyrinogen-III synthase (Homo sapiens); assay: Compound was tested for its activity as inhibitor of Uroporphyrinogen III synthase; Yes

Compound	Activity
N#Cc1[nH]c(Cc2[nH]c(Cc3[nH]c(Cc4[nH]c(CO)c(CC(=O)O)c4CCC(=O)O)c(CC(=O)O)c3CCC(=O)O)c(CC(=O)O)c2CCC(=O)O)c(CC(=O)O)c1CCC(=O)O	Active
Cc1[nH]c(Cc2[nH]c(Cc3[nH]c(Cc4[nH]c(CO)c(CC(=O)O)c4CCC(=O)O)c(CC(=O)O)c3CCC(=O)O)c(CC(=O)O)c2CCC(=O)O)c(CC(=O)O)c1CCC(=O)O	Active
Cn1cc(CCC(=O)O)c(CC(=O)O)c1Cc1[nH]c(Cc2[nH]c(Cc3[nH]c(CO)c(CC(=O)O)c3CCC(=O)O)c(CC(=O)O)c2CCC(=O)O)c(CC(=O)O)c1CCC(=O)O	Active
Cn1c(Cc2[nH]cc(CCC(=O)O)c2CC(=O)O)c(CCC(=O)O)c(CC(=O)O)c1Cc1[nH]c(Cc2[nH]c(CO)c(CC(=O)O)c2CCC(=O)O)c(CC(=O)O)c1CCC(=O)O	Active

More lines, now with the values ahead:

Activity	Compound
Active	CC(O)c1[nH]c(Cc2[nH]c(Cc3[nH]c(Cc4[nH]cc(CCC(=O)O)c4CC(=O)O)c(CCC(=O)O)c3CC(=O)O)c(CCC(=O)O)c2CC(=O)O)c(CCC(=O)O)c1CC(=O)O (configuration not stated)
Active	O=C(O)CCc1c(Br)[nH]c(Cc2[nH]c(Cc3[nH]c(Cc4[nH]c(CO)c(CC(=O)O)c4CCC(=O)O)c(CC(=O)O)c3CCC(=O)O)c(CC(=O)O)c2CCC(=O)O)c1CC(=O)O

target: T1, Uroporphyrinogen-III synthase (Homo sapiens); assay: Compound was tested for its activity as substrate of Uroporphyrinogen III synthase; Poor substrate

Compound	Activity
Cc1c(CCC(=O)O)c[nH]c1Cc1[nH]c(Cc2[nH]c(Cc3[nH]c(CO)c(CC(=O)O)c3CCC(=O)O)c(CC(=O)O)c2CCC(=O)O)c(CC(=O)O)c1CCC(=O)O	(+)
